Results from patent US8530465B2, “1, 2-disubstituted amido-anthraquinone derivatives, preparation method and application thereof” (National Defense Medical Center, priority 2010, dated 2013).

Experiments:
Type in all cases: cell-based, human
[1] = tested on: HOP-92; assay: NCI drug screen, HOP-92; conditions: HOP-92 (Non-Small Cell Lung Cancer); 1.00E−5 Molar
Experimental: (§1) In brief, cellular protein levels were determined after 48 hours of drug exposure by sulforhodamine B colorimetry. Through the use of a time 0 cell control, the cell growth can be determined for each cell line thus allowing calculations of the 50% growth inhibitory concentration (GI50), the total growth inhibition (TGI), and the 50% lethal concentration (LC50). Comparison to plates not exposed to drug permits determination of concentration and times of exposure conferring 50% net growth inhibition (GI50), TGI, and 50% cell kill (LC50).
(§2) The screening system in United State National Cancer Institute (NCI) is consisted of 60 kinds of different human cancer cells, which can be used to assay the growth-inhibiting ability or cell toxicity of a compound against various cancer and tumor at a certain concentration.

[2] = tested on: MDA-MB-468; assay: NCI drug screen, MDA-MB-468; conditions: MDA-MB-468 (Breast Cancer); 1.00E−5 Molar
Experimental: as §1, §2

[3] = tested on: NCI-H522; assay: NCI drug screen, NCI-H522; conditions: NCI-H522 (Non-Small Cell Lung Cancer); 1.00E−5 Molar
Experimental: as §1, §2

[4] = tested on: NCI-H23; assay: NCI drug screen, NCI-H23; conditions: NCI-H23 (Non-Small Cell Lung Cancer); 1.00E−5 Molar
Experimental: as §1, §2

[5] = tested on: SF-268; assay: NCI drug screen, SF-268; conditions: SF-268 (CNS Cancer); 1.00E−5 Molar
Experimental: as §1, §2

[6] = tested on: HCT-116; assay: NCI drug screen, HCT-116; conditions: HCT-116 (Colon Cancer); 1.00E−5 Molar
Experimental: as §1, §2

[7] = tested on: HCC-2998; assay: NCI drug screen, HCC-2998; conditions: HCC-2998 (Colon Cancer); 1.00E−5 Molar
Experimental: as §1, §2

[8] = tested on: MOLT-4; assay: NCI drug screen, MOLT-4; conditions: MOLT-4 (Leukemia); 1.00E−5 Molar
Experimental: as §1, §2

[9] = tested on: SN12C; assay: NCI drug screen, SN12C; conditions: SN12C (Renal Cancer); 1.00E−5 Molar
Experimental: as §1, §2

[10] = tested on: HS 578-T; assay: NCI drug screen, HS 578-T; conditions: HS 578-T (Breast Cancer); 1.00E−5 Molar
Experimental: as §1, §2

[11] = tested on: HL-60(TB); assay: NCI drug screen, HL-60(TB); conditions: HL-60(TB) (Leukemia); 1.00E−5 Molar
Experimental: as §1, §2

[12] = tested on: SW-620; assay: NCI drug screen, SW-620; conditions: SW-620 (Colon Cancer); 1.00E−5 Molar
Experimental: as §1, §2

[13] = tested on: CAKI-1; assay: NCI drug screen, CAKI-1; conditions: CAKI-1 (Renal Cancer); 1.00E−5 Molar
Experimental: as §1, §2

[14] = tested on: M14; assay: NCI drug screen, M14; conditions: M14 (Melanoma); 1.00E−5 Molar
Experimental: as §1, §2

[15] = MTT assay, PhTERT-SEAP (H1299); conditions: human, H1299 cells carrying the PhTERT-SEAP reporter, PhTERT-SEAP (H1299); for viability at 1 μM: Conc. 1 μM, read-out: Relative MTT viability (%); for viability at 10 μM: Conc. 10 μM; for viability at 10 μM / viability at 100 μM: read-out: Relative MTT viability (%) (converted); for viability at 100 μM: Conc. 100 μM
In short: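 Cultured cells received MTT for 4 h at 37 °C, then lysis buffer overnight at 37 °C. Optical density was read at 550 nm.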

[16] = tested on: RXF 393; assay: NCI drug screen, RXF 393; conditions: RXF 393 (Renal Cancer); 1.00E−5 Molar
Experimental: as §1, §2

[17] = tested on: LOX IMVI; assay: NCI drug screen, LOX IMVI; conditions: LOX IMVI (Melanoma); 1.00E−5 Molar
Experimental: as §1, §2

[18] = tested on: K562; assay: NCI drug screen, K562; conditions: K562 (Leukemia); 1.00E−5 Molar
Experimental: as §1, §2

[19] = tested on: SNB-19; assay: NCI drug screen, SNB-19; conditions: SNB-19 (CNS Cancer); 1.00E−5 Molar
Experimental: as §1, §2

[20] = tested on: CCRF-CEM; assay: NCI drug screen, CCRF-CEM; conditions: CCRF-CEM (Leukemia); 1.00E−5 Molar
Experimental: as §1, §2

[21] = tested on: SF-295; assay: NCI drug screen, SF-295; conditions: SF-295 (CNS Cancer); 1.00E−5 Molar
Experimental: as §1, §2

[22] = tested on: UO-31; assay: NCI drug screen, UO-31; conditions: UO-31 (Renal Cancer); 1.00E−5 Molar
Experimental: as §1, §2

[23] = tested on: SK-MEL-5; assay: NCI drug screen, SK-MEL-5; conditions: SK-MEL-5 (Melanoma); 1.00E−5 Molar
Experimental: as §1, §2

[24] = tested on: IGROV1; assay: NCI drug screen, IGROV1; conditions: IGROV1 (Ovarian Cancer); 1.00E−5 Molar
Experimental: as §1, §2

[25] = tested on: OVCAR-3; assay: NCI drug screen, OVCAR-3; conditions: OVCAR-3 (Ovarian Cancer); 1.00E−5 Molar
Experimental: as §1, §2

[26] = tested on: MCF7; assay: NCI drug screen, MCF7; conditions: MCF7 (Breast Cancer); 1.00E−5 Molar
Experimental: as §1, §2

[27] = tested on: TK-10; assay: NCI drug screen, TK-10; conditions: TK-10 (Renal Cancer); 1.00E−5 Molar
Experimental: as §1, §2

[28] = tested on: HT29; assay: NCI drug screen, HT29; conditions: HT29 (Colon Cancer); 1.00E−5 Molar
Experimental: as §1, §2

[29] = tested on: NCI/ADR-RES; assay: NCI drug screen, NCI/ADR-RES; conditions: for Growth Percent: NCI/ADR-RES (Ovarian Cancer), 1.00E−5 Molar; for drug-resistance against adriamycin (ADR): human multiple drug-resistant cell NCI/ADR-RES
Experimental: as §1, §2

[30] = tested on: EKVX; assay: NCI drug screen, EKVX; conditions: EKVX (Non-Small Cell Lung Cancer); 1.00E−5 Molar
Experimental: as §1, §2

Compound	Growth Percent [1] [%]	Growth Percent [2] [%]	Growth Percent [3] [%]	Growth Percent [4] [%]	Growth Percent [5] [%]	Growth Percent [6] [%]	Growth Percent [8] [%]	Growth Percent [9] [%]	Growth Percent [11] [%]	Growth Percent [12] [%]	Growth Percent [14] [%]	viability at 1 μM [15] [%]	viability at 10 μM [15] [%]	Growth Percent [17] [%]	Growth Percent [19] [%]	Growth Percent [21] [%]	Growth Percent [22] [%]	Growth Percent [23] [%]	Growth Percent [24] [%]	Growth Percent [25] [%]	also measured
Cc1ccc(C(=O)Nc2ccc3c(c2NC(=O)c2ccc(C)cc2)C(=O)c2ccccc2C3=O)cc1 [CC-04, 1,2-bis-(4-methylbenzamido)-anthraquinone]	91.21	104.17	72.05	90.57	98.91	78.55	89.63	98.59	73.11	93.79	91.57	100 ± 4.4	117	84.41	103.91	110.81	66.54	94.04	78.71	97.90	Growth Percent [7]: 84.68%; Growth Percent [10]: 105.96%; Growth Percent [13]: 94.89%; viability at 100 μM [15]: 62%; Growth Percent [16]: 88.25%; Growth Percent [18]: 107.54%; Growth Percent [20]: 79.02%; Growth Percent [26]: 71.71%; Growth Percent [27]: 124.91%; Growth Percent [28]: 99.39%
Cc1ccc(C(=O)Nc2c(NC(=O)CCl)ccc3c2C(=O)c2ccccc2C3=O)cc1 [CC-12, 1-(4-methylbenzamido)-2-(chloroacetamido)-anthraquinone]	−68.77	−83.42	57.88	−85.89	14.63	−54.27	−23.17	−81.02	−46.88	−43.27	−22.68	104 ± 7.83	2.77	−57.05	88.40	79.70	42.91	−98.72	51.41	−92.86	Growth Percent [29]: 72.17%; drug-resistance against adriamycin (ADR) [29]: possessed drug-resistance against adriamycin (ADR); Growth Percent [30]: 88.22%; Growth Percent [26]: −79.28%; Growth Percent [27]: 130.52%; Growth Percent [28]: 3.37%
O=C(CCl)Nc1ccc2c(c1NC(=O)Cc1ccccc1)C(=O)c1ccccc1C2=O [CC-23, 1-[2-(phenyl)acetylamino]-2-(chloroacetamido)-anthraquinone]	73.63	51.02	43.37	64.75	80.14	67.55	11.40	79.93	41.36	83.41	87.10	82 ± 1.79	5.94	36.29	124.27	98.48	58.19	51.32	41.03	86.38	Growth Percent [29]: 86.87%; drug-resistance against adriamycin (ADR) [29]: possessed drug-resistance against adriamycin (ADR); Growth Percent [7]: 94.74%; Growth Percent [10]: 66.65%; viability at 100 μM [15]: 3.98%; Growth Percent [20]: 33.97%; Growth Percent [30]: 102.08%; Growth Percent [26]: 51.00%; Growth Percent [27]: 120.81%; Growth Percent [28]: 88.84%
